Laboratory results: patent US20170334934A1, “Macrocyclic picolinamides as fungicides” (DOW AGROSCIENCES LLC, priority 2014, published 2017)
Like-named read-outs stand apart in the source and are kept apart here.

Tests used:
[1] = test system: Mycosphaerella graminicola; Anamorph: Zymoseptoria tritici; assay: Fungicidal activity: Leaf Blotch of Wheat (SEPTTR), wheat seedlings; type: in vivo; conditions: Low Volume (121.5 g/H), wheat
Method: Example A: Evaluation of Fungicidal Activity: Leaf Blotch of Wheat (Mycosphaerella graminicola; Anamorph: Zymoseptoria tritici; Bayer Code […]) Technical grades of materials were dissolved in acetone, which were then mixed with nine volumes of water containing 110 ppm Triton X-100. The fungicide solutions were applied onto wheat seedlings using an automated booth sprayer to run-off. All sprayed plants were allowed to air dry prior to further handling. All fungicides were evaluated using the aforementioned method for their activity vs. all target diseases, unless stated otherwise. Wheat leaf blotch and brown rust activity were also evaluated using track spray applications, in which case the fungicides were formulated as EC formulations, containing 0.1% Trycol 5941 in the spray solutions. Wheat plants (variety Yuma) were grown from seed in a greenhouse in 50% mineral soil/50% soil-less Metro mix until the first leaf was fully emerged, with 7-10 seedlings per pot. These plants were inoculated with an aqueous spore suspension of Zymoseptoria tritici either prior to or after fungicide treatments. After inoculation the plants were kept in 100% relative humidity (one day in a dark dew chamber followed by two to three days in a lighted dew chamber at 20° C.) to permit spores to germinate and infect the leaf. The plants were then transferred to a greenhouse set at 20° C. for disease to develop. When disease symptoms were fully expressed on the 1st leaves of untreated plants, infection levels were assessed on a scale of 0 to 100 percent disease severity. Percent disease control was calculated using the ratio of disease severity on treated plants relative to untreated plants.

[2] = test system: Puccinia triticina; assay: Fungicidal activity: Wheat Brown Rust (PUCCRT), wheat seedlings; type: in vivo; conditions: Low Volume (121.5 g/H)
Method: Technical grades of materials were dissolved in acetone, which were then mixed with nine volumes of water containing 110 ppm Triton X-100. The fungicide solutions were applied onto wheat seedlings using an automated booth sprayer to run-off. All sprayed plants were allowed to air dry prior to further handling. All fungicides were evaluated using the aforementioned method for their activity vs. all target diseases, unless stated otherwise. Wheat leaf blotch and brown rust activity were also evaluated using track spray applications, in which case the fungicides were formulated as EC formulations, containing 0.1% Trycol 5941 in the spray solutions. Wheat plants (variety Yuma) were grown from seed in a greenhouse in 50% mineral soil/50% soil-less Metro mix until the first leaf was fully emerged, with 7-10 seedlings per pot. These plants were inoculated with an aqueous spore suspension of Zymoseptoria tritici either prior to or after fungicide treatments. After inoculation the plants were kept in 100% relative humidity (one day in a dark dew chamber followed by two to three days in a lighted dew chamber at 20° C.) to permit spores to germinate and infect the leaf. The plants were then transferred to a greenhouse set at 20° C. for disease to develop. When disease symptoms were fully expressed on the 1st leaves of untreated plants, infection levels were assessed on a scale of 0 to 100 percent disease severity. Percent disease control was calculated using the ratio of disease severity on treated plants relative to untreated plants. Example B: Evaluation of Fungicidal Activity: Wheat Brown Rust (Puccinia triticina; Synonym: Puccinia recondita f. sp. tritici; Bayer Code PUCCRT) Wheat plants (variety Yuma) were grown from seed in a greenhouse in 50% mineral soil/50% soil-less Metro mix until the first leaf was fully emerged, with 7-10 seedlings per pot. These plants were inoculated with an aqueous spore suspension of Puccinia triticina either prior to or after fungicide treatments. After inoculation the plants were kept in a dark dew room at 22° C. with 100% relative humidity overnight to permit spores to germinate and infect the leaf. The plants were then transferred to a greenhouse set at 24° C. for disease to develop. Fungicide formulation, application and disease assessment followed the procedures as described in the Example A.

[3] = 24 h, 1 Day Protectant, read-out: SEPTTR disease control rating, 1DP
[4] = 72 h, 3 Day Curative, read-out: SEPTTR disease control rating, 3DC
[5] = 24 h, 1 Day Protectant, read-out: PUCCRT disease control rating, 1DP
[6] = 72 h, 3 Day Curative, read-out: PUCCRT disease control rating, 3DC

Row | SMILES | pest or weed control at 121.5 g/ha [1, 3] [%] | pest or weed control at 121.5 g/ha [1, 4] [%] | pest or weed control at 121.5 g/ha [2, 5] [%] | pest or weed control at 121.5 g/ha [2, 6] [%]
1 | C=C(C)CO[C@H]1[C@H](C)OC(=O)[C@@H](NC(=O)c2nccc(OC)c2OCOC(C)=O)CCO[C@@H]1CC [Compound 88] | < 70 | < 70 | > 70 | > 70
2 | CC[C@H]1OCC[C@H](NC(=O)c2nccc(OC)c2OCOC(C)=O)C(=O)O[C@@H](C)[C@@H]1OCC(C)C [Compound 89] | > 70 | > 70 | > 70 | > 70
3 | CC[C@H]1OCC[C@H](NC(=O)c2nccc(OC)c2OCOC(C)=O)C(=O)O[C@@H](C)[C@@H]1Oc1ccccc1 [Compound 90] | > 70 | > 70 | > 70 | > 70
4 | CC[C@H]1OCC[C@H](NC(=O)c2nccc(OC)c2OCOC(C)=O)C(=O)O[C@@H](C)[C@@H]1Oc1ccc(F)cc1 [Compound 91] | > 70 | > 70 | > 70 | > 70
5 | C=C(C)CO[C@H]1[C@H](C)OC(=O)[C@@H](NC(=O)c2nccc(OC)c2OC(C)=O)CCO[C@@H]1CC [Compound 92] | < 70 | < 70 | > 70 | > 70
6 | CC[C@H]1OCC[C@H](NC(=O)c2nccc(OC)c2OC(C)=O)C(=O)O[C@@H](C)[C@@H]1OCC(C)C [Compound 93] | > 70 | > 70 | > 70 | > 70
7 | CC[C@H]1OCC[C@H](NC(=O)c2nccc(OC)c2OC(C)=O)C(=O)O[C@@H](C)[C@@H]1Oc1ccccc1 [Compound 94] | > 70 | > 70 | > 70 | > 70
8 | CC[C@H]1OCC[C@H](NC(=O)c2nccc(OC)c2OC(C)=O)C(=O)O[C@@H](C)[C@@H]1OC(=O)C(C)C [Compound 95] | < 70 | > 70 | > 70 | > 70
9 | COc1ccnc(C(=O)N[C@H]2CCOC[C@@H](OCc3ccccc3)[C@H](C)OC2=O)c1OCOC(C)=O [Compound 96] | < 70 | > 70 | > 70 | > 70
10 | COc1ccnc(C(=O)N[C@H]2CCOC[C@@H](OCC(C)C)[C@H](C)OC2=O)c1OCOC(C)=O [Compound 97] | > 70 | > 70 | > 70 | > 70
11 | COc1ccnc(C(=O)N[C@H]2CCOC[C@@H](OC(=O)C(C)C)[C@H](C)OC2=O)c1OCOC(C)=O [Compound 98] | < 70 | < 70 | < 70 | < 70
12 | COc1ccnc(C(=O)N[C@H]2CCOC[C@@H](Oc3ccccc3)[C@H](C)OC2=O)c1OCOC(C)=O [Compound 99] | < 70 | < 70 | > 70 | > 70
13 | COc1ccnc(C(=O)N[C@H]2CCOC[C@@H](Oc3ccccc3)[C@H](C)OC2=O)c1OC(C)=O [Compound 100] | < 70 | > 70 | > 70 | > 70
